According to US12612465B2, “Formulations comprising PCSK9 specific monoclonal antibodies” (Amgen Inc., priority 2012, dated 2026):

Molecular target: PCSK9 (Homo sapiens, UniProt Q8NBP7)
Assay: 12 week monotherapy dose-ranging study, Framingham risk 10% or less (Example 24)
Type: in vivo
Parameters: endogenous in cells; host or cells: human subjects, in vivo
Description: Ezetimibe was not blinded. The end-of-study visit and the last estimation of lipids was at week 12 for subjects on Q4W IP schedule or on ezetimibe and week 14 for subjects on Q2W IP schedule.
Males and females, ≥18 to ≤75 years of age, were eligible for this study. Fasting LDL-C was ≥100 mg/dL (2.6 mmol/L) and ≤190 mg/dL (4.9 mmol/L) and fasting triglycerides ≤400 mg/dL (4.5 mmol/L) by central laboratory at screening.
The primary endpoint was the percent change from baseline in LDL-C at week 12. Secondary endpoints included percent changes in apolipoprotein B (ApoB), lipoprotein (a) (Lp(a)), and in the ratio of total cholesterol to high-density lipoprotein (HDL)-C. Tolerability and safety were also evaluated.

Sequence of PCSK9 (Q8NBP7 153-692): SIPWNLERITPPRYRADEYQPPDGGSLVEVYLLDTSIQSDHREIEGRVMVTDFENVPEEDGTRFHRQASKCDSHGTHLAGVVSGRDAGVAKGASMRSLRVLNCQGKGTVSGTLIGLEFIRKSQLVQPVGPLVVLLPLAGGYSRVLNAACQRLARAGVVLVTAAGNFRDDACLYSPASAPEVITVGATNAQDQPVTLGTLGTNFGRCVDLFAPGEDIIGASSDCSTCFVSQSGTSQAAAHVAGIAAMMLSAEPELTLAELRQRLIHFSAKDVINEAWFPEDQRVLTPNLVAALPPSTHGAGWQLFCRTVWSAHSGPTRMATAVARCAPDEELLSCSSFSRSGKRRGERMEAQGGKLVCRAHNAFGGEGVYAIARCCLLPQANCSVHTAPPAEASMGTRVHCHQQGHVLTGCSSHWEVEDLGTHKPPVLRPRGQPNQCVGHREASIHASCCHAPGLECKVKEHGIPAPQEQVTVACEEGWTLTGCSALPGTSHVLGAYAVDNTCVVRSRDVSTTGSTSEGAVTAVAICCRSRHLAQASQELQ

O=C1[C@H](CC[C@H](O)c2ccc(F)cc2)[C@@H](c2ccc(O)cc2)N1c1ccc(F)cc1 [Ezetimibe, ezetimibe, reference compound]
Least squares mean percent change from baseline in LDL-C, week 12 (Ezetimibe QD (N = 45)): −14.26%
percent change from baseline in LDL-C (ezetimibe QD PO, week 12, final data): 14%
